Among the data in ChEMBL document CHEMBL4482303, “Test system for measuring mest activity as well as methods and uses involving the same” (2012) are inhibition values, retold here.

The target in test [1] is T1, Glycerol-3-phosphate acyltransferase 4 (Homo sapiens) (UniProt Q86UL3).
T1 sequence (whole entry): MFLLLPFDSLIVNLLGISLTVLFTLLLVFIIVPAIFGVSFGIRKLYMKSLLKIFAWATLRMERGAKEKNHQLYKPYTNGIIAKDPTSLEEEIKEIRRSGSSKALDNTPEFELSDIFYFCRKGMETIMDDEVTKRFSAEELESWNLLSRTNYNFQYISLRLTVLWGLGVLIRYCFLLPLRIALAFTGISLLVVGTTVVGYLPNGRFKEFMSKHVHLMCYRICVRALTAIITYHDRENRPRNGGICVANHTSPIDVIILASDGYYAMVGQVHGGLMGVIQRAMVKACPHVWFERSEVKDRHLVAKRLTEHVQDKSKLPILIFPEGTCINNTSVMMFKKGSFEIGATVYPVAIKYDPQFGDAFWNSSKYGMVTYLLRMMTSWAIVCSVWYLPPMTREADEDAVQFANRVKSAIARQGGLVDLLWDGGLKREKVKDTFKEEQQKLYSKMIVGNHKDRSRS
The test can be described thus: Inhibition of GPAT4 (unknown origin) expressed in Sf9 cell membranes assessed as reduction in glycerol 3-phosphate acyltransferase activity at 1 uM using [3H]-glycerol 3-phosphate and palmitoyl CoA incubated for 60 mins by scintillation counting assay relative to control.

The target in test [2] is T2, Mesoderm-specific transcript homolog protein (Homo sapiens) (UniProt Q5EB52).
T2 sequence (whole entry): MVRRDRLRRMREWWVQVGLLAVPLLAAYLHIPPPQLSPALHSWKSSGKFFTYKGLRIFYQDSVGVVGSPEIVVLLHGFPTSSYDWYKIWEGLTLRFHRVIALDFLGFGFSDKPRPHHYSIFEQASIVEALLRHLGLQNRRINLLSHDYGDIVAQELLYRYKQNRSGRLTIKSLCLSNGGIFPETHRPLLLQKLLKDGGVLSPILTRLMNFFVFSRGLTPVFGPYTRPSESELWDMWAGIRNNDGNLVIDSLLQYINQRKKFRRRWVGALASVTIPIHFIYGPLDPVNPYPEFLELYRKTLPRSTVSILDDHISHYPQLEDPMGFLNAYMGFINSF
The test can be described thus: Inhibition of human recombinant MEST T580B (11 to 335 amino acids) expressed in Sf9 cell membranes assessed as reduction in glycerol 3-phosphate acyltransferase activity at 3 uM using [3H]-glycerol 3-phosphate and palmitoyl CoA incubated for 60 mins by scintillation counting assay relative to control.

Test [3] deals with T2, Mesoderm-specific transcript homolog protein (Homo sapiens). The test can be described thus: Inhibition of human recombinant MEST T579B (2 to 335 amino acids) expressed in Sf9 cell membranes assessed as reduction in glycerol 3-phosphate acyltransferase activity at 10 uM using [3H]-glycerol 3-phosphate and palmitoyl CoA incubated for 60 mins by scintillation counting assay relative to control.

For test [4], the target named is T3, Glycerol-3-phosphate acyltransferase 3 (Homo sapiens) (UniProt Q53EU6).
T3 sequence (whole entry): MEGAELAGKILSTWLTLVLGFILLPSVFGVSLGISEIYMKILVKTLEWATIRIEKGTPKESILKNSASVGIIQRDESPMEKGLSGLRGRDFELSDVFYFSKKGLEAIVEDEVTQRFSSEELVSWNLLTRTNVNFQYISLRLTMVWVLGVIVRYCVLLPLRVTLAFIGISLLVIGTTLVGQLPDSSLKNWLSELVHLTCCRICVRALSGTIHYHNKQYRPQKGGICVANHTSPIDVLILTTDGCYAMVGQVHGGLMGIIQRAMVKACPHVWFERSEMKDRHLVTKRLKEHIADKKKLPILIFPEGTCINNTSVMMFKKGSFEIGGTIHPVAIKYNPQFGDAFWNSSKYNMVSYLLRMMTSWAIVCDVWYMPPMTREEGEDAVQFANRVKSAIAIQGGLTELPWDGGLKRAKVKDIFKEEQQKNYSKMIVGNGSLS
The test can be described thus: Inhibition of GPAT3 (unknown origin) expressed in Sf9 cell membranes assessed as reduction in glycerol 3-phosphate acyltransferase activity at 3 uM using [3H]-glycerol 3-phosphate and palmitoyl CoA incubated for 60 mins by scintillation counting assay relative to control.

The target of test [5] is T2, Mesoderm-specific transcript homolog protein (Homo sapiens). The test can be described thus: Inhibition of human recombinant MEST T580B (11 to 335 amino acids) expressed in Sf9 cell membranes assessed as reduction in glycerol 3-phosphate acyltransferase activity at 1 uM using [3H]-glycerol 3-phosphate and palmitoyl CoA incubated for 60 mins by scintillation counting assay relative to control.

Test [6] has as its target T3, Glycerol-3-phosphate acyltransferase 3 (Homo sapiens). The test can be described thus: Inhibition of GPAT3 (unknown origin) expressed in Sf9 cell membranes assessed as reduction in glycerol 3-phosphate acyltransferase activity at 1 uM using [3H]-glycerol 3-phosphate and palmitoyl CoA incubated for 60 mins by scintillation counting assay relative to control.
Test [7] has as its target T2, Mesoderm-specific transcript homolog protein (Homo sapiens). Put plainly: Inhibition of human recombinant MEST T579B (2 to 335 amino acids) expressed in Sf9 cell membranes assessed as reduction in glycerol 3-phosphate acyltransferase activity at 0.3 uM using [3H]-glycerol 3-phosphate and palmitoyl CoA incubated for 60 mins by scintillation counting assay relative to control.

The target in test [8] is T1, Glycerol-3-phosphate acyltransferase 4 (Homo sapiens). The test can be described thus: Inhibition of GPAT4 (unknown origin) expressed in Sf9 cell membranes assessed as reduction in glycerol 3-phosphate acyltransferase activity at 0.1 uM using [3H]-glycerol 3-phosphate and palmitoyl CoA incubated for 60 mins by scintillation counting assay relative to control.
Test [9] has as its target T3, Glycerol-3-phosphate acyltransferase 3 (Homo sapiens). Put plainly: Inhibition of GPAT3 (unknown origin) expressed in Sf9 cell membranes assessed as reduction in glycerol 3-phosphate acyltransferase activity at 10 uM using [3H]-glycerol 3-phosphate and palmitoyl CoA incubated for 60 mins by scintillation counting assay relative to control.
Test [10] addresses T1, Glycerol-3-phosphate acyltransferase 4 (Homo sapiens). The test can be described thus: Inhibition of GPAT4 (unknown origin) expressed in Sf9 cell membranes assessed as reduction in glycerol 3-phosphate acyltransferase activity at 10 uM using [3H]-glycerol 3-phosphate and palmitoyl CoA incubated for 60 mins by scintillation counting assay relative to control.
Test [11] deals with T2, Mesoderm-specific transcript homolog protein (Homo sapiens). The test can be described thus: Inhibition of human recombinant MEST T579B (2 to 335 amino acids) expressed in Sf9 cell membranes assessed as reduction in glycerol 3-phosphate acyltransferase activity at 1 uM using [3H]-glycerol 3-phosphate and palmitoyl CoA incubated for 60 mins by scintillation counting assay relative to control.

Test [12] has as its target T4, Glycerol-3-phosphate acyltransferase 1, mitochondrial (Homo sapiens) (UniProt Q9HCL2).
T4 sequence (whole entry): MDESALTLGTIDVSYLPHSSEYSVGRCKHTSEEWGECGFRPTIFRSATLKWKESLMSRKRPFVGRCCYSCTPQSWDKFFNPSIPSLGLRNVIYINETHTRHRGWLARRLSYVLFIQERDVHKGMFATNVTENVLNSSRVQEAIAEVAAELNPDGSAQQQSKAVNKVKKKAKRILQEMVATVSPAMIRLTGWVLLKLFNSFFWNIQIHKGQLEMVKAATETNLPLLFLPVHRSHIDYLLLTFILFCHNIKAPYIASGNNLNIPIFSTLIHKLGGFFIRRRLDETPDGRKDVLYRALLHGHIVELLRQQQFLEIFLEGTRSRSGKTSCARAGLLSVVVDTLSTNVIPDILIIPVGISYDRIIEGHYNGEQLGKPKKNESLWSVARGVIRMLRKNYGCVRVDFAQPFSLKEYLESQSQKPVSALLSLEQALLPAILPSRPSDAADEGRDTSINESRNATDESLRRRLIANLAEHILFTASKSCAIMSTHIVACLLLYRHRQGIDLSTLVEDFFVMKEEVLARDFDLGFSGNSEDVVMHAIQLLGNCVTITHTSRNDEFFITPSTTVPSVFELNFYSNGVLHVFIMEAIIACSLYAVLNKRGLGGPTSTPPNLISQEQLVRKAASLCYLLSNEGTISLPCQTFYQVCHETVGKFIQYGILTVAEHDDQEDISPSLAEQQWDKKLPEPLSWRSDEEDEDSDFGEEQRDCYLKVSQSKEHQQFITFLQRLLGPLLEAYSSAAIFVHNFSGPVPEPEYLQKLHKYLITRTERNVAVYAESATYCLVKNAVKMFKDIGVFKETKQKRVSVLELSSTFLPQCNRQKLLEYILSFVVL
Put plainly: Inhibition of GPAT1 (unknown origin) expressed in Sf9 cell membranes assessed as reduction in glycerol 3-phosphate acyltransferase activity at 3 uM using [3H]-glycerol 3-phosphate and palmitoyl CoA incubated for 60 mins by scintillation counting assay relative to control.

Test [13] deals with T2, Mesoderm-specific transcript homolog protein (Homo sapiens). The test can be described thus: Inhibition of human recombinant MEST T579B (2 to 335 amino acids) expressed in Sf9 cell membranes assessed as reduction in glycerol 3-phosphate acyltransferase activity at 0.1 uM using [3H]-glycerol 3-phosphate and palmitoyl CoA incubated for 60 mins by scintillation counting assay relative to control.

Test [14] has as its target T1, Glycerol-3-phosphate acyltransferase 4 (Homo sapiens). Put plainly: Inhibition of GPAT4 (unknown origin) expressed in Sf9 cell membranes assessed as reduction in glycerol 3-phosphate acyltransferase activity at 0.03 uM using [3H]-glycerol 3-phosphate and palmitoyl CoA incubated for 60 mins by scintillation counting assay relative to control.
The target in test [15] is T3, Glycerol-3-phosphate acyltransferase 3 (Homo sapiens). Put plainly: Inhibition of GPAT3 (unknown origin) expressed in Sf9 cell membranes assessed as reduction in glycerol 3-phosphate acyltransferase activity at 0.03 uM using [3H]-glycerol 3-phosphate and palmitoyl CoA incubated for 60 mins by scintillation counting assay relative to control.

In general, inhibition refers to the relative decrease from the control value, in per cent.

On to `O=C(CO)COP(=O)(O)O`, for which the inhibition in [1] worked out at 9%; in test [2], 45%; in [3] it was 69%; in test [4], 38%; in test [5] it was 18%; in [6], 26%. Also, the inhibition is 24% in test [7]; -2% in [8]; 57% in test [9]; 54% in [10]; 27% in [11]; 47% in [12]. The inhibition in [13] is -6%; in [14], 6%; in test [15], -9%.
